Experimental data: ChEMBL document CHEMBL2321874, “Small-molecular, non-peptide, non-ATP-competitive polo-like kinase 1 (Plk1) inhibitors with a terphenyl skeleton” (Bioorg Med Chem, 2013)
In brackets after ≈: the same amount, converted by molar mass.

How the values were obtained:
[1] = target: Serine/threonine-protein kinase PLK1 (Homo sapiens) (UniProt P53350); experiment: Inhibition of human recombinant N-terminal GST-tagged Plk1 at 250 uM
[2] = Solubility of the compound; type: physicochemical

Sequence of Serine/threonine-protein kinase PLK1 (Homo sapiens) (P53350 whole entry): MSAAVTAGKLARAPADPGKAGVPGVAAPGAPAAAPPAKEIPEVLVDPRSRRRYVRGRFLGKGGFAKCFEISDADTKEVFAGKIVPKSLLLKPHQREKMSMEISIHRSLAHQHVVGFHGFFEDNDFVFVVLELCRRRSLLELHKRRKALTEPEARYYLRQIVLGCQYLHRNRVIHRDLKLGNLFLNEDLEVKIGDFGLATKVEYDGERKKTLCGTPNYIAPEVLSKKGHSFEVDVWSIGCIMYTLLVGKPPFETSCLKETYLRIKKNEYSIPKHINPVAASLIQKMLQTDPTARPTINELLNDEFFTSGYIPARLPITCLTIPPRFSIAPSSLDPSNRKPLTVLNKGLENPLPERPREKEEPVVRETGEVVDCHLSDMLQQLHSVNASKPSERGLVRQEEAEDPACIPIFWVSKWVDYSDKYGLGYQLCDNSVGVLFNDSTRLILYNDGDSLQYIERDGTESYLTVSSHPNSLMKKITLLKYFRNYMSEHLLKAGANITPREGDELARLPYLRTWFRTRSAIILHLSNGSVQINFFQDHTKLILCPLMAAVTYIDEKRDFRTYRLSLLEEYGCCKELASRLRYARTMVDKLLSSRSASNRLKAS

Row | inhibition [1] | solubility [2] | SMILES
1 | 0% | – | CNC(=O)Cc1ccc(-c2cc(C)cc(-c3ccc(CC(=O)NC)cc3)c2OCCO)cc1
2 | – | 100 µM (≈ 35.4 µg/mL) | Cc1cc(-c2ccc(C#N)cc2)c(OCCO)c(-c2ccc(C#N)cc2)c1
